From US10174002B2, “Pyridine derivatives as CFTR modulators” (NuBridge BioSciences, priority 2015, dated 2019)

Biological target: T1, ΔF508 mutant CFTR (Homo sapiens, UniProt P13569, DEL508-508)
T1 construct: expressed in transfected cells; host or cells: Fischer rat thyroid (FRT) cells, co-expressing the halide-sensitive YFP-H148Q/I152L
Assay: Fluorescence Assay of ΔF508 mutant CFTR activity (halide-sensitive YFP quenching by iodide influx in FRT cells)
Type: cell-based
Parameters: key: fold of mean activity with forskolin alone (I− quenching rate)
Details: test compounds 20 μM with forskolin 20 μM, 20 min; FRT cells expressing ΔF508-CFTR and YFP-H148Q/I152L, incubated at 27° C. 20-24 h; rate of fluorescence quenching by I−, normalized to mean activity with forskolin alone
Excerpt: The ΔF508 mutant CFTR activities of the CFTR modulators are detected using the Fluorescence Assay developed by Pedemonte (Pedemonte N., et al., Antihypertensive 1,4-dihydropyridines as correctors of the cystic fibrosis transmembrane conductance regulator channel gating defect caused by cystic fibrosis mutations, Mol. Pharmacol., 2005, 68, 1736-1746).
Fischer rat thyroid (FRT) cells, stably transfected with ΔF508 were retransfected with the YFP-H148Q/I152L fluorescent protein. The cells were plated (100,000 cells/well) on black 96-well microplates with clear plastic bottom (Corning Life Sciences, Acton, Mass.).
The 96-well microplates containing FRT cells expressing F508-CFTR and the halide-sensitive YFP were incubated at 27° C. for 20 to 24 h to allow rescue of the mutant protein to the plasma membrane. After incubation, cells were washed with PBS (containing 137 mM NaCl, 2.7 mM KCl, 8.1 mM Na2HPO4, 1.5 mM KH2PO4, 1 mM CaCl2, and 0.5 mM MgCl2) and stimulated for 20 min with forskolin (20 μM) and test compounds (20 μM) in a final volume of 60 μl. Microplates were then transferred to a microplate reader for CFTR activity determination. Each assay consisted of a continuous 14-s fluorescence reading (5 points per second) with 2 s before and 12 s after injection of 165 μl of an iodide-containing solution (PBS with Cl^− replaced by I^−). Final iodide concentration in the wells was 100 mM. […] To determine I^− influx rate, the final 11 s of the data for each well were fitted with an exponential function to extrapolate initial slope. CFTR activity was determined by measuring the rate of fluorescence quenching induced by extracellular addition of I^−. Data are normalized to the mean activity measured in the presence of forskolin alone.

T1 sequence (P13569 with tags, fused parts or gaps DEL508-508): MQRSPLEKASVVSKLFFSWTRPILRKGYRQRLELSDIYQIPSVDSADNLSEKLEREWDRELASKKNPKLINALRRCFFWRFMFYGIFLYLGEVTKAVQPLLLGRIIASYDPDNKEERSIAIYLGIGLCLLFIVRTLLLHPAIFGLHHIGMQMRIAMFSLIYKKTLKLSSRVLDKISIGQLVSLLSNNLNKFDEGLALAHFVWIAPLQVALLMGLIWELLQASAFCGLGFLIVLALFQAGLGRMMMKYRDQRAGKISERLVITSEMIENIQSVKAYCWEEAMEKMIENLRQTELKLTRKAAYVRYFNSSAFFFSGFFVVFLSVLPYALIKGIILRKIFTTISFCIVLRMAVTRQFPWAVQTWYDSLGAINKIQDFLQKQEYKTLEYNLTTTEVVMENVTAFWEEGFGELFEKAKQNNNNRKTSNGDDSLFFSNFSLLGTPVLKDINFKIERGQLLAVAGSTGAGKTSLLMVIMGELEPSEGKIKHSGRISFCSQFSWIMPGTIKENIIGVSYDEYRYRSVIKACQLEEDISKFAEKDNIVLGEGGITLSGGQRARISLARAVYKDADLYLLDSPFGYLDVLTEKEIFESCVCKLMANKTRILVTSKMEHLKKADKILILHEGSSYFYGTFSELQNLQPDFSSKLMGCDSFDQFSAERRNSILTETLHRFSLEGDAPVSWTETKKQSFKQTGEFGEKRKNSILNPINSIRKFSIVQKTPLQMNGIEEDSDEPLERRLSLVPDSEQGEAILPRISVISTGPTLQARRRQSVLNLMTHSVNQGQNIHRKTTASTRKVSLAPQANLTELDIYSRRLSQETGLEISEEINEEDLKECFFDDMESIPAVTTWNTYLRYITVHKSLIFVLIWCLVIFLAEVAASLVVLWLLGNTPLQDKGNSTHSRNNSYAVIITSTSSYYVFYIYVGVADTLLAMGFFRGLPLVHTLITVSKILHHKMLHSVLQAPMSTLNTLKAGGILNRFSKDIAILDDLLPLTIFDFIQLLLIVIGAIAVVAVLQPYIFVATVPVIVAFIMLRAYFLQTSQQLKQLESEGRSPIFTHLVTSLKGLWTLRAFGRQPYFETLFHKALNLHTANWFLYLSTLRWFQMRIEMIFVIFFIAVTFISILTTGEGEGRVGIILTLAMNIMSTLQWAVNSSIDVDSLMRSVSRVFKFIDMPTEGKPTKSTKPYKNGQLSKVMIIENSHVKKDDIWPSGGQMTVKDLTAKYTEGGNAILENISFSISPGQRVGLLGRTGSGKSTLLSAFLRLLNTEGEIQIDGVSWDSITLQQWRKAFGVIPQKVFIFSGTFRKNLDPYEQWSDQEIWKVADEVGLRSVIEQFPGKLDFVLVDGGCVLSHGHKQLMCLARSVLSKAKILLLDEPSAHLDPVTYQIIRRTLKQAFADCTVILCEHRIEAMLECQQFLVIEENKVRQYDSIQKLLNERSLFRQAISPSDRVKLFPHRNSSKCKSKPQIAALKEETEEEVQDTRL

Row | SMILES | CFTR Activity
1 | Cl.Nc1cc(F)c(-c2c(F)cccc2F)nc1C(=O)Nc1cnccc1OCC1CCCNC1 (stereo not shown) [Example 35, 3-amino-6-(2,6-difluorophenyl)-5-fluoro-N-(4-(piperidin-3-ylmethoxy)pyridin-3-yl)picolinamide hydrochloride] | 2.1
2 | Cl.NCCCCOc1ccncc1NC(=O)c1nc(-c2c(F)cccc2F)c(F)cc1N [Example 36, 3-amino-N-(4-(4-aminobutoxy)pyridin-3-yl)-6-(2,6-difluorophenyl)-5-fluoropicolinamide hydrochloride] | 2.3
3 | Cl.Nc1cc(F)c(-c2c(F)cccc2F)nc1C(=O)Nc1cnccc1OC1CCCC(N)C1 (stereo not shown) [Example 37, 3-amino-N-(4-((3-aminocyclohexyl)oxy)pyridin-3-yl)-6-(2,6-difluorophenyl)-5-fluoropicolinamide hydrochloride] | 4.8
4 | Cl.O=C(Nc1cnccc1OC1CCNCC1)c1ccc(F)c(-c2ccncc2)n1 [Example 39, 3-fluoro-N-(4-(piperidin-4-yloxy)pyridin-3-yl)-[2,4′-bipyridine]-6-carboxamide hydrochloride] | 1.0
5 | COc1cccc(F)c1-c1nc(C(=O)Nc2cnccc2OC2CCCNCC2)ccc1F.Cl (stereo not shown) [Example 41, N-(4-(azepan-4-yloxy)pyridin-3-yl)-5-fluoro-6-(2-fluoro-6-methoxyphenyl)picolinamide hydrochloride] | 2.0
6 | Cl.O=C(Nc1cnccc1OC1CCCNCC1)c1ccc(C(F)(F)F)c(-c2c(F)cccc2F)n1 (stereo not shown) [Example 42, N-(4-(azepan-4-yloxy)pyridin-3-yl)-6-(2,6-difluorophenyl)-5-(trifluoromethyl)picolinamide hydrochloride] | 2.7
7 | Cl.O=C(Nc1cnccc1OCC1CNC1)c1ccc(C(F)(F)F)c(-c2c(F)cccc2F)n1 [Example 44, N-(4-(azetidin-3-ylmethoxy)pyridin-3-yl)-6-(2,6-difluorophenyl)-5-(trifluoromethyl)picolinamide hydrochloride] | 2.1
8 | Cl.O=C(Nc1cnccc1OC1CCNCC1)c1ccc(C(F)(F)F)c(-c2c(F)cccc2F)n1 [Example 45, 6-(2,6-difluorophenyl)-N-(4-(piperidin-4-yloxy)pyridin-3-yl)-5-(trifluoromethyl)picolinamide hydrochloride] | 2.7
9 | Cl.Nc1cc(C(F)(F)F)c(-c2c(F)cccc2F)nc1C(=O)Nc1cnccc1OCC1CNC1 [Example 50, 3-amino-N-(4-(azetidin-3-ylmethoxy)pyridin-3-yl)-6-(2,6-difluorophenyl)-5-(trifluoromethyl)picolinamide hydrochloride] | 2.7
10 | Cl.Nc1cc(C(F)(F)F)c(-c2c(F)cccc2F)nc1C(=O)Nc1cnccc1O[C@H]1CC[C@H](N)CC1 [Example 52] | 5.4
11 | Cl.Nc1cc(C(F)(F)F)c(-c2ccccc2)nc1C(=O)Nc1cnccc1OC1CCNC1 (stereo not shown) [Example 53, 3-amino-6-phenyl-N-(4-(pyrrolidin-3-yloxy)pyridin-3-yl)-5-(trifluoromethyl)picolinamide hydrochloride] | 2.5
12 | Cl.NCC(CO)COc1ccncc1NC(=O)c1nc(-c2c(F)cccc2F)c(F)cc1N (stereo not shown) [Example 57, 3-amino-N-(4-(3-amino-2-(hydroxymethyl)propoxy)pyridin-3-yl)-6-(2,6-difluorophenyl)-5-fluoropicolinamide hydrochloride] | 2.1
13 | Cl.NCC(CO)COc1ccncc1NC(=O)c1ccc(C(F)(F)F)c(-c2c(F)cccc2F)n1 (stereo not shown) [Example 58, N-(4-(3-amino-2-(hydroxymethyl)propoxy)pyridin-3-yl)-6-(2,6-difluorophenyl)-5-(trifluoromethyl)picolinamide hydrochloride] | 2.6
14 | Cl.NC1CCCC(Oc2ccncc2NC(=O)c2ccc(C(F)(F)F)c(-c3c(F)cccc3F)n2)C1 (stereo not shown) [Example 60, N-(4-((3-aminocyclohexyl)oxy)pyridin-3-yl)-6-(2,6-difluorophenyl)-5-(trifluoromethyl)picolinamide hydrochloride] | 5.7

Next, values leading:

Row | CFTR Activity | SMILES
15 | 2.3 | Cl.NCC(CCl)COc1ccncc1NC(=O)c1nc(-c2c(F)cccc2F)c(F)cc1N (stereo not shown) [Example 34, 3-amino-N-(4-(3-amino-2-(chloromethyl)propoxy)pyridin-3-yl)-6-(2,6-difluorophenyl)-5-fluoropicolinamide hydrochloride]
16 | 1.7 | Cl.Nc1cc(F)c(-c2ccccc2)nc1C(=O)Nc1cnccc1OC1CCNC1 (stereo not shown) [Example 38, 3-amino-5-fluoro-6-phenyl-N-(4-(pyrrolidin-3-yloxy)pyridin-3-yl)picolinamide hydrochloride]
17 | 1.8 | Cl.O=C(Nc1cnccc1OC1CCCNCC1)c1nc(-c2c(F)cccc2F)ccc1F (stereo not shown) [Example 40, N-(4-(azepan-4-yloxy)pyridin-3-yl)-6-(2,6-difluorophenyl)-3-fluoropicolinamide hydrochloride]
18 | 2.3 | Cl.O=C(Nc1cnccc1OCC1CCNCC1)c1ccc(C(F)(F)F)c(-c2c(F)cccc2F)n1 [Example 43, 6-(2,6-difluorophenyl)-N-(4-(piperidin-4-ylmethoxy)pyridin-3-yl)-5-(trifluoromethyl)picolinamide hydrochloride]
19 | 3.1 | Cl.N[C@H]1CC[C@H](Oc2ccncc2NC(=O)c2ccc(C(F)(F)F)c(-c3c(F)cccc3F)n2)CC1 [Example 46, N-(4-(((1r,4r)-4-aminocyclohexyl)oxy)pyridin-3-yl)-6-(2,6-difluorophenyl)-5-(trifluoromethyl)picolinamide hydrochloride]
20 | 0.4 | O=C(Nc1cnccc1OCC1CCOCC1)c1ccc(C(F)(F)F)c(-c2c(F)cccc2F)n1 [Example 47, 6-(2,6-difluorophenyl)-N-(4-((tetrahydro-2H-pyran-4-yl)methoxy)pyridin-3-yl)-5-(trifluoromethyl)picolinamide]
21 | 5.2 | Cl.Nc1cc(C(F)(F)F)c(-c2c(F)cccc2F)nc1C(=O)Nc1cnccc1OC1CCCNCC1 (stereo not shown) [Example 48, 3-amino-N-(4-(azepan-4-yloxy)pyridin-3-yl)-6-(2,6-difluorophenyl)-5-(trifluoromethyl)picolinamide hydrochloride]
22 | 4.3 | Cl.Nc1cc(C(F)(F)F)c(-c2c(F)cccc2F)nc1C(=O)Nc1cnccc1OCC1CCNCC1 [Example 49, 3-amino-6-(2,6-difluorophenyl)-N-(4-(piperidin-4-ylmethoxy)pyridin-3-yl)-5-(trifluoromethyl)picolinamide hydrochloride]
23 | 4.8 | Cl.Nc1cc(C(F)(F)F)c(-c2c(F)cccc2F)nc1C(=O)Nc1cnccc1OC1CCNCC1 [Example 51, 3-amino-6-(2,6-difluorophenyl)-N-(4-(piperidin-4-yloxy)pyridin-3-yl)-5-(trifluoromethyl)picolinamide hydrochloride]
24 | 1.8 | Cl.NCC(CCl)COc1ccncc1NC(=O)c1ccc(C(F)(F)F)c(-c2c(F)cccc2F)n1 (stereo not shown) [Example 54, N-(4-(3-amino-2-(chloromethyl)propoxy)pyridin-3-yl)-6-(2,6-difluorophenyl)-5-(trifluoromethyl)picolinamide hydrochloride]
25 | 5.5 | Cl.NCC(CCl)COc1ccncc1NC(=O)c1nc(-c2c(F)cccc2F)c(C(F)(F)F)cc1N (stereo not shown) [Example 55, 3-amino-N-(4-(3-amino-2-(chloromethyl)propoxy)pyridin-3-yl)-6-(2,6-difluorophenyl)-5-(trifluoromethyl)picolinamide hydrochloride]
26 | 2.4 | Cl.NCC(CO)COc1ccncc1NC(=O)c1ccc(F)c(-c2c(F)cccc2F)n1 (stereo not shown) [Example 56, N-(4-(3-amino-2-(hydroxymethyl)propoxy)pyridin-3-yl)-6-(2,6-difluorophenyl)-5-fluoropicolinamide hydrochloride]
27 | 3.1 | Cl.NCC(CO)COc1ccncc1NC(=O)c1nc(-c2c(F)cccc2F)c(C(F)(F)F)cc1N (stereo not shown) [Example 59, 3-amino-N-(4-(3-amino-2-(hydroxymethyl)propoxy)pyridin-3-yl)-6-(2,6-difluorophenyl)-5-(trifluoromethyl)picolinamide hydrochloride]
28 | 6.1 | Cl.Nc1cc(C(F)(F)F)c(-c2c(F)cccc2F)nc1C(=O)Nc1cnccc1OC1CCCC(N)C1 (stereo not shown) [Example 61, 3-amino-N-(4-((3-aminocyclohexyl)oxy)pyridin-3-yl)-6-(2,6-difluorophenyl)-5-(trifluoromethyl)picolinamide hydrochloride]
